Test results reported in patent US20260355136A1, “PROSTACYCLIN FOR TREATING PULMONARY HYPERTENSION” (Shanghai Forefront Pharma Co., Ltd., priority 2023, published 2026).

Columns and labels:
Type in all cases: in vivo, male Sprague-Dawley rats
[1] = test system: MCT modeling rats; experiment: Fulton index (RV/(LV+S)) measurement in MCT-modeled rats
Procedure: The Fulton index reflects the organ remodeling caused by PAH. […] This is a goal that current pharmaceutical drugs for treating PAH cannot achieve, but one that new drugs for PAH aim to reach.
(§1) Twenty-eight 7-week-old male Sprague-Dawley rats (average weight of 200-250 g) were purchased from Vital River and were raised at the experimental site for 1 week of acclimatization (temperature 20 °C-26 °C, humidity 30%-70%, light-dark cycle ratio 1:1) until they were 8 weeks old.
(§2) Twenty-eight rats were randomized into the following 6 groups, including dosing groups, positive control groups, a negative control group and a healthy control group, and each was marked with ear tags.
(§3) • (1) Preparation of monocrotaline (MCT) solution: An adequate amount of MCT was weighed into a 50 mL solution of 20% ethanol-normal saline. After gentle shaking, the solution was transferred to a 50-mL centrifuge tube, and placed tilted in a thermostatic shaker at 37 °C, 220 rpm for 12-14 hours to fully dissolve until no visible crystalline particles observed. • (2) Injection of MCT solution: The skin on the dorsal cervical region of the rats was gently lifted, MCT solution was subcutaneously injected at a dose of 60 mg/kg using a 1-mL syringe and the day was recorded as Day 0. • (3) Healthy control: The same volume of normal saline was injected in the same manner. […]
(§4) Starting from Day 14, the rats were weighed daily, and the corresponding solutions (test compound or normal saline) were administered intragastrically according to the grouping protocol until Day 27, for a total of 14 days; the intragastric dose was 0.5 mL/100 g, and the body weight and survival data of the rats were recorded. […]
After separating the heart, the non-ventricular parts (such as the atria, blood vessels, and valve rings) were cut off. […] RV/(LV+S) was calculated as the Fulton index. […]
(§5) Rats in Groups 3-6 were actually administered for 14 days, and all were measured and sampled on Day 27. […]

[2] = test system: MCT modeling rats; experiment: Hemodynamic measurement of right ventricular systolic pressure (RVSP) by right cardiac catheterization in MCT-modeled rats
Procedure: as §1, §2, §3, §4
(§6) Note: Due to the limited total amount of Compound 1, rats in Group 1 were actually administered for 13 days, rats in Group 2 were actually administered for 12 days, and all were measured and sampled on Day 27; rats in Groups 3-6 were actually administered for 14 days, and all were measured and sampled on Day 27.
as §5

[3] = Body weight of MCT-modeled rats; conditions: intragastric; for Body weight on Day 0: Day 0 = MCT injection, before dosing; for Body weight on Day 14: Day 14 = start of dosing; for Body weight at sampling: sampled on Day 27
Procedure: as §1, §2
• (1) Preparation of monocrotaline (MCT) solution: An adequate amount of MCT was weighed into a 50 mL solution of 20% ethanol-normal saline. After gentle shaking, the solution was transferred to a 50-mL centrifuge tube, and placed tilted in a thermostatic shaker at 37 °C, 220 rpm for 12-14 hours to fully dissolve until no visible crystalline particles observed. • (2) Injection of MCT solution: The skin on the dorsal cervical region of the rats was gently lifted, MCT solution was subcutaneously injected at a dose of 60 mg/kg using a 1-mL syringe and the day was recorded as Day 0. • (3) Healthy control: The same volume of normal saline was injected in the same manner.
According to the concentration of 0.6 mg/mL and 1.2 mg/mL (3-mg/kg/day and 6-mg/kg/day dose groups), appropriate amounts of the test compound were weighed and dissolved in corresponding volume of pure water by shaking to obtain transparent solution, respectively; • (2) The resulting solutions were stored in a 4 °C refrigerator. Remove and equilibrate to room temperature before use;
Starting from Day 14, the rats were weighed daily, and the corresponding solutions (test compound or normal saline) were administered intragastrically according to the grouping protocol until Day 27, for a total of 14 days; the intragastric dose was 0.5 mL/100 g, and the body weight and survival data of the rats were recorded.
as §6

CCCCC[C@H](O)CC[C@@H]1[C@H]2Cc3cccc(OCC(=O)O)c3C[C@H]2C[C@H]1O [Compound C1, Treprostinil sodium 5.5-hydrate]
Fulton index compared with healthy control group ([1]; 3 and 6 mg/kg): still higher than that of the healthy control group
Fulton index reduction of rat heart ([1]; 3 and 6 mg/kg): can significantly reduce the Fulton index of rat heart
Fulton index, difference between dosing groups ([1]; 6 vs 3 mg/kg): no significant difference in the effects between the two dosing groups
RVSP compared with healthy control group ([2]; 3 and 6 mg/kg): still higher than that in the healthy control group
RVSP reduction in rats ([2]; 3 and 6 mg/kg): can significantly reduce RVSP in rats
RVSP, difference between dosing groups ([2]; 6 vs 3 mg/kg): no significant difference in the effects between the two dosing groups
Body weight on Day 0 ([3]; 3 mg/kg/day group): 330 + 25.11 g
Body weight on Day 14 ([3]; 3 mg/kg/day group): 430 + 34.15 g
Body weight at sampling ([3]; 3 mg/kg/day): 431 + 58.03 g
Body weight on Day 0 ([3]; 6 mg/kg/day group): 316 + 4.35 g
Body weight on Day 14 ([3]; 6 mg/kg/day group): 413 + 15.81 g
Body weight at sampling ([3]; 6 mg/kg/day): 436 + 9.65 g
